Measurements reported in patent US7320973B2, “Dihydrodiaryloxazepine derivative and pharmaceutical composition containing the same” (Ajinomoto Co., Inc., priority 2001, dated 2008).
Structures can show the parent of a compound that is named as a salt.

How the values were obtained:
[1] = system: abdominal pain threshold on colorectal distension; assay: Elevation of threshold value of abdominal pain in in vivo rat colorectal distension model; conditions: rats, oral administration
Procedure: The tests were conducted by a method of Saito et al. (Anesth. Analg. 1998; 87: 382-387).
Male Crj:CD rats (250-350 g) were used. A test compound was orally administered to them (n=8). A balloon (length: 7 cm) for dilating the colon was connected to a transducer . After fasting each rat for one day, the balloon was noninvasively inserted internally into the colorectal portion and the base of the balloon was positioned 1 cm from anus under light anesthesia with ether. Water was injected into the balloon at a rate of 0.9 ml/min until the inner pressure in the balloon reached 100 mmHg (cut off value). When the contraction of the abdominal muscle was macroscopically observed during the colon distension, the pressure in the balloon was taken as the threshold value of abdominal pain. The colon distension was conducted at intervals of at least 5 minutes.
The analgesic effect was determined according to the following formula: Analgesic effect (%)=[(threshold value of abdominal pain after treatment with test compound)−(threshold value of abdominal pain before treatment with test compound)]/[100−(threshold value of abdominal pain before treatment with test compound)]×100.
The analgesic effect was calculated as the dose of the test compound required for 50% control (ID50).

[2] = system: 5-HTP-induced defecation (diarrhea or loose stool); assay: In vivo 5-hydroxytryptophan (5-HTP)-induced defecation model of mice; parameters: species or system mouse; conditions: oral administration 30 minutes before 5-HTP 10 mg/kg s.c., fecal score over 30 minutes
Procedure: The tests were conducted by a method of G. J. Sanger et al. (British Journal of Pharmacology, 130: 706-712, 2000).
Male SLC:ICR mice (6 weeks old) were moved to 5stainless steel cages connected together for mice. After the naturalization for at least one hour, a test compound was orally administered (n=10). 30 minutes after, 10 mg/5 mL/kg of 5-HTP or vehicle (5mL/kg of physiological saline for a group for which 5-HTP was not used) was injected subcutaneously. The state of the fecal pellets of each mouse excreted in 30 minutes immediately after the injection was observed [scored as 0 (normal fecal pellets or no fecal pellets) or 1(diarrhea or loose stool)]. The score obtained by subtracting the score of the group to which 5-HTP had not been given from the score of the group to which 5-HTP had been given was taken as 100%. The amount of a test compound for 50% control (ID50) was calculated.

| SMILES | ID50 (analgesic effect, threshold value of abdominal pain) [1] [mg/kg] | ID50 (5-HTP-induced defecation) [2] [mg/kg] |
| --- | --- | --- |
| Fc1ccc2c(c1)OCc1ccccc1N2C[C@H]1CCCN1CCc1ccc(N2CCCC2)cc1 [Example 12, (R)-8-Fluoro-5,11-dihydro-5-[1-(4-pyrrolidinophenethyl)pyrrolidin-2-yl-methyl]dibenzo[b,e]1,4]oxazepine dihydrochloride] | 1.9 | – |
| CN(C)c1ccc(CCN2CCC[C@@H]2CN2c3cc(Cl)ccc3COc3ccccc32)cc1 [Example 8, (R)-3-Chloro-5,11-dihydro-5-[1-(4-dimethylaminophenethyl)pyrrolidin-2-ylmethyl]dibenzo[b,e][1,4]oxazepine dihydrochloride] | 2.6 | 8.3 |
